According to US6642365B1, “Anti-(retro)viral conjugates of saccharides and acetamidino or guanidino compounds” (Yeda Research and Development Co. Ltd., priority 2001, dated 2003):
Read-outs that look alike come from different tables or passages of the source.

Experiments:
Tat-TAR interaction [1] = experiment: Gel-shift inhibition of Tat R52 peptide binding to TAR RNA; design: species or system HIV-1; conditions: TAR RNA 2 nM; read-out: CI50 (the source's name)
TAR RNA [2] = experiment: L-arginine-Amberlite affinity column elution of TAR RNA; type: binding, HIV-1; conditions: concentration that elutes 50% of TAR RNA from L-arginine-Amberlite affinity column
Experimental: (§1) The model Tat peptide (R52: […]) was prepared by the Weizmann Institute Chemical Services and was purified by reverse phase HPLC (C-18) (Lapidot et al., 1995). […] The RNA was transcriptionally labeled with α-^32P UTP, purified on a 12% polyacrylamide/7M urea gel (19:1 acrylamide:bis-acrylamide) and was eluted from the gel by 0.5M ammonium acetate, 10 mM magnesium acetate, 1 mM EDTA and 0.1% SDS. The sample was subjected to phenol extraction and the RNA was precipitated from 70% ethanol. Purified RNA was dissolved in diethyl pyrocarbonate-treated water (DEPC water), its concentration was determined by UV absorption at 260 nm and the specific radioactivity was determined by scintillation counting on a LS 1701 “Bruker” counter.
The L-arginine-Amberlite resin was prepared as follows: Carboxyl groups of Amberlite IRC-50 resin were covalently modified with ethanolamine using 1-(3-dimethylaminopropyl) 3-ethylcarbodiimide, a water-soluble coupler. The hydroxy ethyleneamide resin obtained was washed and dried, and L-arginine (12-16 μmols per ml of resin) was coupled to the hydroxy groups of the resin via an isourea moiety using a standard cyanogen bromide protocol. The final concentration of arginine residues was 12-16 μmol per ml of resin. The swollen L-arginino-Amberlite resin (200 μl) was packed into a plastic mini-column and equilibrated with buffer containing 40 mM Tris HCl, pH 7.5, 250 mM NaCl, 0.5 mM EDTA and 5 mM MgCl2 (buffer A). Approximately 1 ng of ^32P-UTP labeled TAR RNA in buffer A was loaded on the column. The column was eluted 3 to 5 times with 400 μl portions of buffer A, until no radioactivity was detected in the eluent. […] Each of the test compounds was dissolved in buffer A and passed through the column in 300 μl portions. Radioactivity of the eluates was determined by scintillation counting on a LS 1701 “Bruker” counter. CE50 values, the concentrations of inhibitors eluting 50% of the radioactive material from the column, were determined.

Tat-TAR interaction [3] = experiment: Gel-shift inhibition of Tat R52 peptide binding to TAR RNA; design: species or system HIV-1; conditions: TAR RNA 6 nM; 60 nM Tat R52; read-out: CI50 (the source's name)
Experimental: The model Tat peptide (R52: […]) was prepared by the Weizmann Institute Chemical Services and was purified by reverse phase HPLC (C-18) (Lapidot et al., 1995). A 31-nt TAR RNA fragment (5′-GGCCAGAUCUGAGCCUGGGAGCUCUCUGGCC-3′) containing the sequence 18-44 of the HIV LTR (Aboul-Ela et al., 1995) was transcribed in vitro by T7 RNA polymerase (Promega) from a synthetic single strand DNA template containing the 17 base double-stranded T7 promoter (both DNA oligonucleotides were prepared by the Weizmann Institute Chemical Services). The RNA was transcriptionally labeled with α-^32P UTP, purified on a 12% polyacrylamide/7M urea gel (19:1 acrylamide:bis-acrylamide) and was eluted from the gel by 0.5M ammonium acetate, 10 mM magnesium acetate, 1 mM EDTA and 0.1% SDS. The sample was subjected to phenol extraction and the RNA was precipitated from 70% ethanol. Purified RNA was dissolved in diethyl pyrocarbonate-treated water (DEPC water), its concentration was determined by UV absorption at 260 nm and the specific radioactivity was determined by scintillation counting on a LS 1701 “Bruker” counter.
To study the affinity of the test compounds to TAR, gel-shift and gel-shift inhibition experiments were performed. The binding reaction mixtures (20 μl) contained ^32P-labeled TAR (18-44) RNA oligonucleotide (3-6 nM) and Tat R52 peptide (35-75 nM) in a binding buffer (10 mM Tris-HCl pH 7.5, 70 mM NaCl, 0.2 mM EDTA and 5% glycerol). The reaction mixtures were incubated for 10 minutes on ice and resolved by electrophoresis on a 10% non-denaturing polyacrylamide gel (40:1 acrylamide:bis-acrylamide) at 200V, for 3 h at 4° C. Gels were dried and visualized by autoradiography. Quantitations were obtained by optical densitometry of films. Alternatively, results were visualized by exposing the wet gels to Fuji phosphoimager plates, which were read on a “Storm 820” (Molecular Dynamics) phosphoimager. Different concentrations of TAR RNA (6,12 and 20 nM) were titrated with various concentrations of Tat R52 in the binding reactions.
Binding inhibition by the monosaccharide derivatives was measured by adding several concentrations of each compound to reaction mixtures containing 60 nM Tat 52 and 6 nM ^32P TAR, attaining 100% binding of Tat TAR in the absence of inhibitors (Lapidot et al., 1995).

TAR RNA [4] = experiment: Gel-shift binding to TAR RNA; design: species or system HIV-1; conditions: 50% binding; TAR RNA 2 nM
TAR RNA [5] = experiment: RNase A footprinting of TAR RNA; type: binding, HIV-1; conditions: 1 μM TAR, 200 pM RNase A
Experimental: In a typical experiment 10 μl of 5 mM cacodylate buffer pH 6.5, containing 25 mM KCl and 50-100 ng 5′ ^32P-labeled TAR RNA (approximately 0.5-1 μM) were incubated with 200 pM RNase A (Sigma) at room temperature for 10 minutes in the presence of Tat R52 and the conjugates of the invention at various concentrations. In the competition experiments, the mixture was supplemented with 0.5 μg yeast tRNA (Sigma). After the incubation, 10 μl of formamide/bromphenol blue loading buffer was added to the samples. The samples were heated to 80° C. for 2 min and were resolved by electrophoresis on 40 cm×0.8 mm 20% polyacrylamide denaturing gel (7M urea) for 3 hours at 55° C. The results were visualized by a phosphoimager as described above and quantitated using ImageQuant software.
TAR RNA and RNase A concentrations were established by co-titration. To produce a “single-hit” kinetics conditions, 1 μM TAR versus 200 pM RNase A were selected. Tat R52 and AAC concentrations were determined by titration. […] RNase A cleaved TAR RNA in an uneven manner (FIG. 4A., lane 2). The most susceptible regions for cleavage were the single-stranded loop, nucleotides U31-G34 as well as C24 and U25 of the bulge. Strong cleavage was also observed at G21-G41 and A20-U42 pairs (lower stem). Binding of R52 (2-4 μM) caused a weakening of the bands in the upper stem region, (G26-C39, A27-C38, as well as U40) (FIG. 4A., lanes 3, 4). At 4 μM R52, the cleavage at G34 (loop) was enhanced, as well as a certain enhancement of bands A20, G21, U23 and U25 was observed. Remarkably, the band corresponding to the R52-TAR complex still was observed on the gels even after electrophoresis under strongly denaturing conditions. In the presence of R4K (10-20 μM), the upper stem (G26-C29), the lower stem and the bulge (G21-U23, partially C24 and U25) were protected as well as C38, C39 and U40. Cleavage at C19 and A20 of the lower stem and C30, G33 and G34 of the loop was enhanced by 10 μM R4K, whereas with 20 μM R4K the protection of C30, G34 and A20-G21 was observed (FIG. 4A., lanes 5, 6). […] Cleavages at C19-A20 in the lower stem as well as at G30 and G34 in the loop were observed (FIG. 4A., lanes 7, 8). In the presence of GB4K (20 μM) no significant protection was observed.

TAR RNA [6] = experiment: Gel-shift binding to TAR RNA; design: species or system HIV-1; conditions: for CD50: 50% binding; for effect of ten-fold excess of yeast tRNA on complex formation with TAR: ten-fold excess of tRNA (100 ng per lane)
Experimental: as §1
To study the affinity of the test compounds to TAR, gel-shift and gel-shift inhibition experiments were performed. The binding reaction mixtures (20 μl) contained ^32P-labeled TAR (18-44) RNA oligonucleotide (3-6 nM) and Tat R52 peptide (35-75 nM) in a binding buffer (10 mM Tris-HCl pH 7.5, 70 mM NaCl, 0.2 mM EDTA and 5% glycerol). The reaction mixtures were incubated for 10 minutes on ice and resolved by electrophoresis on a 10% non-denaturing polyacrylamide gel (40:1 acrylamide:bis-acrylamide) at 200V, for 3 h at 4° C. Gels were dried and visualized by autoradiography. Quantitations were obtained by optical densitometry of films. Alternatively, results were visualized by exposing the wet gels to Fuji phosphoimager plates, which were read on a “Storm 820” (Molecular Dynamics) phosphoimager. […]
Binding of aminoglycoside-arginine conjugates (AAC) to TAR RNA was measured by adding varying concentrations of each conjugate to reaction mixtures (20 μl) which contained 12 nM ^32P-labeled TAR RNA. The reactions were analyzed as described above.

Row | Molecule | IC50 (Tat-TAR interaction [1]) [mM] | CE50 (TAR RNA [2]) [mM] | IC50 (Tat-TAR interaction [3]) [mM] | CD50 (TAR RNA [4]) [nM] | concentration giving effective protection of TAR (TAR RNA [5]) [µM] | CD50 (TAR RNA [6]; TAR RNA 6 nM) [nM] | CD50 (TAR RNA [6]; TAR RNA 12 nM) [nM] | CD50 (TAR RNA [6]; TAR RNA 20 nM) [nM] | effect of ten-fold excess of yeast tRNA on complex formation with TAR (TAR RNA [6]) | effect of ten-fold excess of yeast tRNA on complex formation with TAR (TAR RNA [6]; listed as R52)
1 | Cl.N=C(N)NCCC[C@H](N)C(=O)O [Arginine HCl, reference compound] | 4 | 1500 | 38 |  |  |  |  |  |  | 
2 | YKKKRKKKKKA [Tat R52 peptide, Tat-derived model undeca peptide, containing a single arginine moiety at position 52 of native Tat protein, in the strand of lysines, reference compound] |  | 0.5 |  | 6 to 12 | 2 | 35 | 75 | 200 | do not inhibit the binding | did not inhibit complex formation
